Here are results for 27 compounds from ChEMBL document CHEMBL4609996, “Discovery of a novel 2,3-dimethylimidazo[1,2-a]pyrazine-6-carboxamide M4 positive allosteric modulator (PAM) chemotype” (Bioorg Med Chem Lett, 2020).

Where only a bound is given, the exact number is not on record here.

Data set [1] addresses T1, Muscarinic acetylcholine receptor M4 (Homo sapiens, UniProt P08173).
T1 sequence (P08173 whole entry): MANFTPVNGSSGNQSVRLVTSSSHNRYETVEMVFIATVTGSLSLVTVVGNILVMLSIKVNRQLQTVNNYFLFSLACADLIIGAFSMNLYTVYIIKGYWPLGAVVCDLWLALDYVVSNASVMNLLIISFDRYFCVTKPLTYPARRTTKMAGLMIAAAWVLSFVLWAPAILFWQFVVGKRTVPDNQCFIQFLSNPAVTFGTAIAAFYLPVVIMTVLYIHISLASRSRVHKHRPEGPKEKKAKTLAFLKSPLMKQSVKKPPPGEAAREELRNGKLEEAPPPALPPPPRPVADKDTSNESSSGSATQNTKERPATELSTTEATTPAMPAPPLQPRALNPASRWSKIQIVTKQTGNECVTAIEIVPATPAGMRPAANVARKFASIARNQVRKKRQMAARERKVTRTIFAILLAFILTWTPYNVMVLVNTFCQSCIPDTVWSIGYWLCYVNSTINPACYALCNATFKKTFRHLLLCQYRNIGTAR
Briefly: Positive allosteric modulation of human muscarinic M4 receptor expressed in CHO cells co-expressing Gqi5 assessed as increase in acetylcholine-induced calcium mobilization. It is filed as functional, cell-based. (Calcium assays in cells follow changes in intracellular calcium, usually with a dye or a luminescent sensor.)

A short description of data set [2]: Intrinsic clearance in rat microsomes. It is filed as ADME, Microsome.
The nature of data set [3]: Intrinsic clearance in human microsomes. The data set is classed as ADME, Microsome.
A short description of data set [4]: Unbound fraction in rat plasma. It is filed as ADME, cell-free.
Data set [5] is described as follows: Unbound fraction in human plasma. The data set is classed as ADME, cell-free.
The nature of data set [6]: Unbound fraction in rat brain. It is filed as ADME, tissue-based.
A short description of data set [7]: Brain to plasma permeability coefficient, Kp of the compound in rat. The data set is classed as ADME, cell-free.
The nature of data set [8]: Unbound brain-to-plasma concentration ratio in rat. The data set is classed as ADME, cell-free. To be noted: read-out: K(p,uu,brain).
Data set [9] is described as follows: Hepatic clearance in rat. The data set is classed as ADME. To be noted: in vivo.
A short description of data set [10]: Hepatic clearance in human. The data set is classed as ADME.
The target in data set [11] is T2, Muscarinic acetylcholine receptor M4 (Rattus norvegicus, UniProt P08485).
T2 sequence (P08485 whole entry): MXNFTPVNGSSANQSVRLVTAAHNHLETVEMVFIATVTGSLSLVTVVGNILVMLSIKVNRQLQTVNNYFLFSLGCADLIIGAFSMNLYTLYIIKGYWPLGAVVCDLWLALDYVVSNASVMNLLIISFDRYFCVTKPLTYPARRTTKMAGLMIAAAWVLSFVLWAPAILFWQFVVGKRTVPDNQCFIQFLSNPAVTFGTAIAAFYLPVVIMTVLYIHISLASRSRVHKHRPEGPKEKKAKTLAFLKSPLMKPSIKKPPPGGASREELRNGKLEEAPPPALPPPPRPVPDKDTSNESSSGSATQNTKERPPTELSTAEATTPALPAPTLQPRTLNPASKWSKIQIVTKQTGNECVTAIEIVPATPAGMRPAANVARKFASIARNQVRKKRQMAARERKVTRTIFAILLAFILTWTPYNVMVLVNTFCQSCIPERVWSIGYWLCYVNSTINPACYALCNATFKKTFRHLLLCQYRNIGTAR
Description: Positive allosteric modulation of rat muscarinic M4 receptor.

Broadly, the EC50 is the concentration needed to bring the measured effect to its halfway point. The CLint scaled is the rate of metabolic loss divided by the concentration. By fraction unbound is commonly meant the share of the substance not bound to proteins or other matrix. A high value points to much free substance. For orientation: Kp means tissue or fluid exposure divided by exposure in the circulation.

As for `COc1cc(N2CC(NC(=O)c3ccc4nn(C)c(C)c4n3)C2)c(Cl)cn1`, in data set [1] (cho), the EC50 result is recorded as “Not Active”.
For the compound `Cc1nn(C)c2cnc(C(=O)NC3CN(c4cc(Cl)ncc4Cl)C3)cc12`, the CLint scaled is 85 mL/min/kg in [2] and 28 mL/min/kg in data set [3]. Also, the fraction unbound in data set [4] stood at 0.011; in [5], 0.039; in data set [6] it was 0.021. In addition, in data set [7], the Kp is < 0.24. The Kp uu in data set [8] is < 0.45.
Consider `Cc1c2cc(C(=O)NC3CN(c4cc(Cl)ncc4Cl)C3)ccc2nn1C`, for which the fraction unbound in data set [4] turned out to be 0.042; in data set [5] it was 0.043; in data set [6], 0.032. The Kp in data set [7] was determined as 0.05. Besides, the Kp uu in [8] worked out at 0.04. Besides, the results for the CLH in data set [9] and in data set [10] were 20 mL/min/kg and 13 mL/min/kg, respectively.
For `COc1cc(N2CC(NC(=O)c3ccc4snc(C)c4c3)C2)c(Cl)cn1`, the EC50 result in data set [1] (cho) is listed as “Not Active”.
Take `Cc1nc2cnc(C(=O)NC3CN(c4cc(Cl)ncc4Cl)C3)cn2c1C`: the EC50 in data set [11] was determined as 233 nM. In addition, the intrinsic clearance (CLint scaled) in data set [2] came to 96 mL/min/kg; in data set [3], 33 mL/min/kg. Also, the fraction unbound in data set [4] was found to be 0.009; in data set [5] it was 0.04; in [6], 0.034. The Kp in data set [7] was determined as 0.29. In addition, the Kp uu in data set [8] worked out at 1.09.
`Cc1c2cc(C(=O)NC3CN(c4cc(Cl)ncc4Cl)C3)ncc2nn1C` yielded an EC50 in data set [11] of 331 nM. Also, the CLint scaled in data set [2] was 59 mL/min/kg; in [3], 26 mL/min/kg. Further, the figures for the fraction unbound in data set [4], in data set [5] and in data set [6] were 0.022, 0.014 and 0.03, respectively. In addition, the Kp in [7] came out at 0.3. For the same compound, in [8], the Kp uu was determined as 0.41.
In turn, `COc1cc(N2CC(NC(=O)c3cn4c(C)c(C)nc4cn3)C2)c(Cl)cn1` displayed an EC50 in data set [11] of 295 nM. For the same compound, the CLint scaled is 83 mL/min/kg in data set [2] and 25 mL/min/kg in data set [3]. Besides, the figures for the fraction unbound in data set [4], in data set [5] and in data set [6] were 0.017, 0.045 and 0.021, respectively. Also, in [7], the partition ratio (Kp) was < 1.08. Also, in [8], the Kp uu is < 1.33.
As to `COc1cc(N2CC(NC(=O)c3ccc4onc(C)c4c3)C2)c(Cl)cn1`, the EC50 entry in data set [1] (cho) is listed as “Not Active”.
`COc1cc(N2CC(NC(=O)c3cc4c(C)n(C)nc4cn3)C2)c(Cl)cn1` came in with an EC50 in data set [11] of 339 nM. Further, the intrinsic clearance (CLint scaled) turned out to be 33 mL/min/kg in data set [2] and 28 mL/min/kg in [3]. Moreover, the fraction unbound in data set [4] worked out at 0.022; in [5] it was 0.017; in data set [6] it was 0.032. In [7], this compound returned a concentration ratio (Kp) of 0.67. Besides, the Kp uu in data set [8] was 0.97.
On to `Cc1nnc2ccc(C(=O)NC3CN(c4cc(Cl)ncc4Cl)C3)cn12`, for which, in data set [1] (read-out: EC50), the EC50 is > 10000 nM.
`Cc1c2cc(F)c(C(=O)NC3CN(c4cc(Cl)ncc4Cl)C3)cc2nn1C`: in data set [1] (cho), the EC50 entry is recorded as “Not Active”.
Same read-out and setting: the value for `Cn1nc2ccc(C(=O)NC3CN(c4cc(Cl)ncc4Cl)C3)cc2c1C(F)F` was “Not Active”; that for `COc1cc(N2CC(NC(=O)c3ccc4sc(C)nc4c3)C2)c(Cl)cn1` was “Not Active”.
Take `Cc1noc2ccc(C(=O)NC3CN(c4cc(Cl)ncc4Cl)C3)cc12`: the EC50 result in [1] (cho) is “Not Active”.
As for `Cn1nc2ccc(C(=O)NC3CN(c4cc(Cl)ncc4Cl)C3)cc2c1C(F)(F)F`, the EC50 result in data set [1] (cho) was “Not Active”.
`COc1cc(N2CC(NC(=O)c3ccc4nc(C)c(C)n4n3)C2)c(Cl)cn1`: the 50% effective concentration (EC50) result in data set [1] (cho) is given as “Not Active”.
With `Cn1nc2ccc(C(=O)NC3CN(c4cc(Cl)ncc4Cl)C3)cc2c1C1CC1`, the EC50 entry in [1] (cho) was “Not Active”.
Take `COc1cc(N2CC(NC(=O)c3ccc4nnc(C)n4c3)C2)c(Cl)cn1`: the 50% effective concentration (EC50) in [1] (read-out: EC50) is > 10000 nM.
With `COc1cc(N2CC(NC(=O)c3ccc4c(c3)c(C)nn4C)C2)c(Cl)cn1`, the EC50 result in data set [1] (cho) is given as “Not Active”.
The same measure, in the same setting: then `Cc1nc2ccc(C(=O)NC3CN(c4cc(Cl)ncc4Cl)C3)nn2c1C`, with “Not Active”.
As for `Cn1nnc2ccc(C(=O)NC3CN(c4cc(Cl)ncc4Cl)C3)cc21`, the figures for the fraction unbound in data set [4], in [5] and in data set [6] were 0.024, 0.132 and 0.053, respectively. Besides, the Kp in data set [7] was < 0.05. Besides, the Kp uu in [8] is < 0.11. Besides, the CLH in [9] is 8.7 mL/min/kg; in data set [10] it was 21 mL/min/kg.
`Cc1nc2ccc(C(=O)NC3CN(c4cc(Cl)ncc4Cl)C3)cn2c1C` gave a half-maximal effective concentration (EC50) in data set [11] of 433 nM. The values for the CLint scaled in [2] and in data set [3] were 130 mL/min/kg and 39 mL/min/kg, respectively. Also, the figures for the fraction unbound in [4], in data set [5] and in data set [6] were 0.013, 0.03 and 0.027, respectively. Moreover, the Kp in data set [7] turned out to be 0.1. The Kp uu in [8] was found to be 0.21.
In the case of `CCn1nc2ccc(C(=O)NC3CN(c4cc(Cl)ncc4Cl)C3)cc2c1C`, the EC50 entry in data set [1] (cho) is listed as “Not Active”.
`Cn1c(C(F)(F)F)nc2ccc(C(=O)NC3CN(c4cc(Cl)ncc4Cl)C3)cc21` displayed an EC50 in data set [11] of 378 nM.
On to `Cc1nsc2ccc(C(=O)NC3CN(c4cc(Cl)ncc4Cl)C3)cc12`, for which the EC50 entry in data set [1] (cho) is on record as “Not Active”.
On to `Cc1c2nc(C(=O)NC3CN(c4cc(Cl)ncc4Cl)C3)ccc2nn1C`, for which, in data set [1] (cho), the concentration for a half-maximal effect (EC50) result is recorded as “Not Active”.
Take `COc1cc(N2CC(NC(=O)c3cc4nn(C)c(C)c4cc3F)C2)c(Cl)cn1`: the EC50 result in data set [1] (cho) is on record as “Not Active”.
